Experimental data: patent US11433092B2, “Compositions and methods of use for wound healing” (SYNEDGEN, INC., priority 2013, dated 2022)

System: Methicillin Resistant Staphylococcus aureus (NRS 384/USA 300)
Assay: Deep partial thickness biofilm prevention porcine wound model, MRSA
Format: in vivo
Experimental: The animals were prepared as described (above). Ninety-six (96) rectangular wounds measuring 10 mm×7 mm×0.5 mm deep were made in the paravertebral and thoracic area with a specialized electrokeratome fitted with a 7 mm blade. The wounds were separated from one another by 15 mm of unwounded skin and individually dressed. The wounds were then inoculated and treated. A fresh culture of Acinetobacter baumannii ATCC 19606 or Methicillin Resistant Staphylococcus aureus (NRS 384/USA 300) was used in these studies. The challenge inoculum suspension was prepared by scraping the overnight growth from a culture plate into 5 ml of normal saline. […] Serial dilutions were made until a concentration of 10^6 CFU/ml was achieved. […] In addition, serial dilutions of the suspension were plated onto selective media and the plates were incubated aerobically overnight (16-24 hours) at 37° C., in order to quantify the exact concentration of viable organisms used for this experiment. […]
Twelve (12) wounds were recovered from each treatment group on each assessment day (days 3 and 4). […] Serial dilutions were made from all culture samples, and the extent of microbiological contamination was assessed using the Spiral Plater System (Spiral Biotech, Norwood, Mass.). […] All plates were incubated aerobically overnight 24 hours at 37° C., after which time the number of viable colonies were counted.

C/C(=C\C(=O)OCCCCCCCCC(=O)O)C[C@@H]1OC[C@H](C[C@@H]2O[C@H]2[C@@H](C)[C@H](C)O)[C@@H](O)[C@H]1O [mupirocin]
biofilm infection at day 3 compared to day 4 (MRSA) (across treatment days): significant reduction in biofilm infection
biofilm infection (MRSA) (days 3 and 4): significantly reduced biofilm infection
